# Laboratory results from ChEMBL document CHEMBL1201861, “Genomics of Drug Sensitity in Cancer screening data, Wellcome Trust Sanger Institute”.
# pIC50: −log10 of the molar value.
# Legend:
# [1] = test system: EC-GI-10; experiment: cells; format: functional, cell-based, Homo sapiens; details: Homo sapiens, EC-GI-10
# Description: SANGER: Inhibition of human EC-GI-10 cell growth in a cell viability assay.
# [2] = test system: NCI-H2171; experiment: cells; format: functional, cell-based, Homo sapiens; details: Homo sapiens, NCI-H2171;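 also: growth inhibition of human NCI-H2171 cells, read out by a cell viability assay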
# Description: SANGER: Inhibition of human NCI-H2171 cell growth in a cell viability assay.
# [3] = test system: DG-75; experiment: cells; format: functional, cell-based, Homo sapiens; details: Homo sapiens, DG-75;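 also: growth inhibition of DG-75 cells, read out with a cell viability assay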
# Description: SANGER: Inhibition of human DG-75 cell growth in a cell viability assay.
# [4] = test system: NCI-H719; experiment: cells; format: functional, cell-based, Homo sapiens; details: Homo sapiens, NCI-H719;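 also: growth inhibition of the cultured cell line, read out with a viability assay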
# Description: SANGER: Inhibition of human NCI-H719 cell growth in a cell viability assay.
# [5] = test system: NB17; experiment: cells; format: functional, cell-based, Homo sapiens; details: Homo sapiens, NB17;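 also: growth inhibition of NB17 cells, read out with a cell viability assay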
# Description: SANGER: Inhibition of human NB17 cell growth in a cell viability assay.
# [6] = test system: RPMI 8402; experiment: SANGER: Inhibition of human RPMI-8402 cell growth in a cell viability assay.; format: functional, cell-based; details: Homo sapiens, RPMI 8402
# [7] = test system: JIYOYE; experiment: cells; format: functional, cell-based, Homo sapiens; details: Homo sapiens, JIYOYE
# Description: SANGER: Inhibition of human JiyoyeP-2003 cell growth in a cell viability assay.
# [8] = test system: LB373-MEL-D; experiment: cells; format: functional, cell-based, Homo sapiens; details: Homo sapiens, LB373-MEL-D;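 also: growth inhibition of the cell line, read out in a cell viability assay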
# Description: SANGER: Inhibition of human LB373-MEL-D cell growth in a cell viability assay.
# [9] = test system: NCI-H510A; experiment: cells; format: functional, cell-based, Homo sapiens; details: Homo sapiens, NCI-H510A;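 also: growth inhibition of NCI-H510A cells, read out with a cell viability assay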
# Description: SANGER: Inhibition of human NCI-H510A cell growth in a cell viability assay.
# [10] = test system: SR; experiment: cells; format: functional, cell-based, Homo sapiens; details: Homo sapiens, SR
# Description: SANGER: Inhibition of human SR cell growth in a cell viability assay.
# [11] = test system: NCI-H1522; experiment: cells; format: functional, cell-based, Homo sapiens; details: Homo sapiens, NCI-H1522;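 also: growth inhibition of NCI-H1522 cells, read out with a cell viability assay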
# Description: SANGER: Inhibition of human NCI-H1522 cell growth in a cell viability assay.
# [12] = test system: NB1; experiment: cells; format: functional, cell-based, Homo sapiens; details: Homo sapiens, NB1
# Description: SANGER: Inhibition of human NB1 cell growth in a cell viability assay.
# [13] = test system: SU-DHL-1; experiment: SANGER: Inhibition of human SU-DHL-1 cell growth in a cell viability assay.; format: functional, cell-based; details: Homo sapiens, SU-DHL-1
# [14] = test system: TALL-1; experiment: cells; format: functional, cell-based, Homo sapiens; details: Homo sapiens, TALL-1;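 also: growth inhibition of cultured human TALL-1 cells, read out by a cell viability assay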
# Description: SANGER: Inhibition of human TALL-1 cell growth in a cell viability assay.
# [15] = test system: EVSA-T; experiment: cells; format: functional, cell-based, Homo sapiens; details: Homo sapiens, EVSA-T;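 also: growth inhibition of EVSA-T cells, read out with a cell viability assay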
# Description: SANGER: Inhibition of human EVSA-T cell growth in a cell viability assay.
# [16] = test system: DMS-153; experiment: cells; format: functional, cell-based, Homo sapiens; details: Homo sapiens, DMS-153
# Description: SANGER: Inhibition of human DMS-153 cell growth in a cell viability assay.
# [17] = test system: REH; experiment: cells; format: functional, cell-based, Homo sapiens; details: Homo sapiens, REH;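 also: growth inhibition of REH cells determined with a cell viability read-out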
# Description: SANGER: Inhibition of human REH cell growth in a cell viability assay.
# [18] = test system: SUP-T1; experiment: cells; format: functional, cell-based, Homo sapiens; details: Homo sapiens, SUP-T1;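 also: growth inhibition of human SUP-T1 cells, read out as cell viability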
# Description: SANGER: Inhibition of human SUP-T1 cell growth in a cell viability assay.
# [19] = test system: RPMI-6666; experiment: cells; format: functional, cell-based, Homo sapiens; details: Homo sapiens, RPMI-6666
# Description: SANGER: Inhibition of human RPMI-6666 cell growth in a cell viability assay.
Compound,pIC50 [1],pIC50 [2],pIC50 [3],pIC50 [4],pIC50 [5],pIC50 [6],pIC50 [7],pIC50 [8],pIC50 [9],pIC50 [10],pIC50 [11],pIC50 [12],pIC50 [13],pIC50 [14],pIC50 [15],pIC50 [16],pIC50 [17],pIC50 [18],pIC50 [19]
C=CC(=O)N1CCCC(Nc2nc(Nc3ccc(N(C)C(=O)CC)cc3)nc3[nH]cnc23)C1 (stereo not given),< 4.99,< 4.99,< 4.99,< 4.99,< 4.99,< 4.99,< 4.99,< 4.99,< 4.99,< 4.99,< 4.99,< 4.99,< 4.99,< 4.99,< 4.99,< 4.99,< 4.99,< 4.99,< 4.99
COc1ccc(N(C(=O)Oc2c(C)cccc2C)c2ccnc(Nc3ccc(N4CCN(C)CC4)cc3)n2)c(OC)c1,< 5.29,< 5.29,< 5.29,< 5.29,5.58,< 5.29,< 5.29,< 5.29,< 5.29,< 5.29,< 5.29,< 5.29,< 5.29,< 5.29,< 5.29,< 5.29,< 5.29,< 5.29,< 5.29
Cc1cc(N2CCOCC2)cc2[nH]c(-c3c(NC[C@@H](O)c4cccc(Cl)c4)cc[nH]c3=O)nc12,< 5.29,< 5.29,< 5.29,< 5.29,< 5.29,< 5.29,5.30,< 5.29,< 5.29,5.69,< 5.29,< 5.29,< 5.29,< 5.29,< 5.29,< 5.29,< 5.29,< 5.29,5.46
NC(=O)c1cccc(-c2cc(Nc3ccc(OC(F)(F)F)cc3)ncn2)c1,< 5.89,< 5.89,< 5.89,< 5.89,< 5.89,< 5.89,< 5.89,< 5.89,< 5.89,< 5.89,< 5.89,< 5.89,< 5.89,< 5.89,< 5.89,< 5.89,< 5.89,< 5.89,< 5.89
CC(C)C[C@H](NC(=O)[C@H](Cc1ccccc1)NC(=O)c1cnccn1)B(O)O [BORTEZOMIB],< 7.70,< 7.70,7.73,< 7.70,8.69,8.46,8.30,9.15,< 7.70,8.90,< 7.70,8.16,8.14,< 7.70,8.44,< 7.70,< 7.70,< 7.70,< 7.70
